Experimental data reported in paper PMC5552880, “The Bitter Taste Receptor TAS2R16 Achieves High Specificity and Accommodates Diverse Glycoside Ligands by using a Two-faced Binding Pocket” (Scientific Reports, 2017).
Numbering of substitutions follows the chain as printed. Entries after “also recorded” stand apart in the source; their conditions may differ. Where two headings read alike, the source gives them in different places.

Columns and labels:
[1] = molecular target: T1, wild-type TAS2R16 (Homo sapiens, UniProt Q9NYV7); assay: Ca2+ flux assay, HEK-293T cells expressing wild-type TAS2R16 and Gα16gust44; format: cell-based; settings: for activation of TAS2R16 (agonist screen): compounds screened at 10 mM, wild-type TAS2R16, Fig. 2a
T1 construct: FLAG (N); expressed in transfected cells; host or cells: HEK-293T
T1 sequence (Q9NYV7 1-291): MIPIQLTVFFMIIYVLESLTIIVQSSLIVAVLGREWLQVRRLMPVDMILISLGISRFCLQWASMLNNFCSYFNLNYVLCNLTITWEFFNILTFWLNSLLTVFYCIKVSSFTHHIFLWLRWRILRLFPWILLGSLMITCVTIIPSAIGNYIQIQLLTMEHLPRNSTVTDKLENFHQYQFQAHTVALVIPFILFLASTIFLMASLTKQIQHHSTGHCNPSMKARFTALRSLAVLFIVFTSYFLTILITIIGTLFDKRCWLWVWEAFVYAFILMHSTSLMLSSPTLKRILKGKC
Description: (§1) The TAS2R16 mutation library was tested for function using a Ca^2+ flux assay as described previously. Later screens of individual TAS2R16 mutant clones used 4-nitrophenyl-β-D-glucopyranoside. Briefly, HEK-293T cells, in poly-lysine coated, black 384-well plates with clear bottoms (Costar), were transfected with the TAS2R16 mutation library, and a plasmid expressing a Gα16 chimera containing the last 44 amino acids of rat gustducin (Gα16gust44). Cells were incubated for 22 hours at 37 °C then washed twice with a calcium indicator dye in HBSS containing 20 mM HEPES (Calcium 4 Assay kit, Molecular Devices), incubated with HBSS for 1.5 hr, then moved to a Flexstation II-384 (Molecular Devices) set at 32 °C. […] Concentrations for mutation library screening were chosen to be approximately 2 to 3 times higher than the EC50 values for the ligands to maximize the sensitivity of detecting decreases in signaling due to the mutation in each clone.
(§2) For Ca^2+ flux assays, the value of fluorescence at 30 seconds after ligand addition (the time of peak signal for wild-type TAS2R16) was used as the maximum value. […] Raw data obtained from surface expression and flux experiments were normalized to the values for wild-type TAS2R16 on each plate. Data sets were analyzed and represented as percentage over baseline signal. Mean and standard deviation values were calculated for each clone from replicate assay data.
(§3) Ligand dose-response data was analyzed with Graphpad Prism 5 software. Data was baseline subtracted and then fit using a sigmoidal dose-response (variable slope) equation.

[2] = test system: TAS2R16; settings: disaccharides; cited from earlier work
[3] = molecular target: T2, W261A TAS2R16 (Homo sapiens, UniProt Q9NYV7, W261A); assay: Ca2+ flux assay, W261A TAS2R16 variant; format: cell-based; settings: for activation of W261A variant: W261A TAS2R16, relative to wild-type; for decrease in EC50 with W261 mutation compared to WT: W261 to alanine or glycine vs WT
T2 construct: FLAG (N); expressed in transfected cells; host or cells: HEK-293T
T2 sequence (Q9NYV7 1-291 W261A): T1 sequence (Q9NYV7 1-291) with W261A
Description: as §1, §2, §3

[4] = molecular target: T3, S228T TAS2R16 (Homo sapiens, UniProt Q9NYV7, S228T); assay: Ca2+ flux assay, mutation library clone S228T; format: cell-based; settings: library screening concentrations
T3 construct: FLAG (N); expressed in transfected cells; host or cells: HEK-293T
T3 sequence (Q9NYV7 1-291 S228T): T1 sequence (Q9NYV7 1-291) with S228T
Description: as §1, §2

[5] = molecular target: T4, S108T TAS2R16 (Homo sapiens, UniProt Q9NYV7, S108T); assay: Ca2+ flux assay, mutation library clone S108T; format: cell-based; settings: library screening concentrations
T4 construct: FLAG (N); expressed in transfected cells; host or cells: HEK-293T
T4 sequence (Q9NYV7 1-291 S108T): T1 sequence (Q9NYV7 1-291) with S108T
Description: as §1, §2

[6] = molecular target: T5, W261G TAS2R16 (Homo sapiens, UniProt Q9NYV7, W261G); assay: Ca2+ flux assay, mutation library clone W261G; format: cell-based; settings: W261G TAS2R16, relative to wild-type, Fig. 5A
T5 construct: FLAG (N); expressed in transfected cells; host or cells: HEK-293T
T5 sequence (Q9NYV7 whole entry W261G): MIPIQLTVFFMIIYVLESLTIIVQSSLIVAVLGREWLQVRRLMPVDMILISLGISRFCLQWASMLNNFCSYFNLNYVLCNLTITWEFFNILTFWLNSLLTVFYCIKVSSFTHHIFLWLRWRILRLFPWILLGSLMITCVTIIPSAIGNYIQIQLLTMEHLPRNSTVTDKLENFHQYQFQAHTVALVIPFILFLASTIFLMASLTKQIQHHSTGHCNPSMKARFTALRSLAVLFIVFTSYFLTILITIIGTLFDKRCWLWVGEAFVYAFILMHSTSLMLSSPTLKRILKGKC
Description: as §1
(§4) For Ca^2+ flux assays, the value of fluorescence at 30 seconds after ligand addition (the time of peak signal for wild-type TAS2R16) was used as the maximum value. […] Data sets were analyzed and represented as percentage over baseline signal. Mean and standard deviation values were calculated for each clone from replicate assay data.

[7] = molecular target: T6, C79A TAS2R16 (Homo sapiens, UniProt Q9NYV7, C79A); assay: Ca2+ flux assay, C79A TAS2R16 variant; format: cell-based; settings: Figure S3
T6 construct: FLAG (N); expressed in transfected cells; host or cells: HEK-293T
T6 sequence (Q9NYV7 whole entry C79A): as the sequence (Q9NYV7 whole entry W261G) above, with C79A, G261W counted along it
Description: as §1, §4

[8] = test system: TAS2R38; settings: cited from earlier work
[9] = test system: TAS2R16; settings: cited from earlier work
[10] = test system: TAS2R43; settings: cited from earlier work
[11] = molecular target: T7, N96T TAS2R16 (Homo sapiens, UniProt Q9NYV7, N96T); assay: Ca2+ flux assay, N96T TAS2R16 variant; format: cell-based; settings: Fig. 7 dose-response
T7 construct: FLAG (N); expressed in transfected cells; host or cells: HEK-293T
T7 sequence (Q9NYV7 whole entry N96T): as the sequence (Q9NYV7 whole entry W261G) above, with N96T, G261W counted along it
Description: as §1, §4
(§5) Ligand dose-response data was analyzed with Graphpad Prism 5 software. […]

[12] = molecular target: T8, N96A TAS2R16 (Homo sapiens, UniProt Q9NYV7, N96A); assay: Ca2+ flux assay, N96A TAS2R16 variant; format: cell-based; settings: Fig. 7 dose-response
T8 construct: FLAG (N); expressed in transfected cells; host or cells: HEK-293T
T8 sequence (Q9NYV7 whole entry N96A): as the sequence (Q9NYV7 whole entry W261G) above, with N96A, G261W counted along it
Description: as §1, §4, §5

[13] = Fig. 5b dose-response, W261A TAS2R16
[14] = Fig. 2d dose-response, wild-type TAS2R16, HEK-293T, read-out: EC50
[15] = Fig. 5b dose-response, wild-type TAS2R16, read-out: EC50 (WT)

Which “activation of wild-type TAS2R16” value ([1]; wild-type TAS2R16, HEK-293T) does the source give for `C=CCC(=NOS(=O)(=O)O)S[C@@H]1O[C@H](CO)[C@@H](O)[C@H](O)[C@H]1O` (stereo in doubt) [sinigrin] here?
The value was “activation”.

Which “activation of TAS2R16” value [2] does the source give for gentiobiose here?
Its value is “activation”.

Which “EC50 (WT)” value ([1]; Fig. 5b dose-response, wild-type TAS2R16) does the source give for `OC[C@H]1O[C@@H](Oc2ccccc2)[C@H](O)[C@@H](O)[C@@H]1O` [phenyl-β-glucoside, phenyl-β-D-glucoside] here?
Its value is “high”.

And the “activation of wild-type TAS2R16” value ([1]; wild-type TAS2R16, HEK-293T)?
The value was “substantially weaker activation”.

What about the “EC50 (W261A)” value [3, 13] of the same molecule?
The value was “high”.

Which “Ca2+ flux signaling value” [4] does the source give for `CCCCCCO[C@@H]1O[C@H](CO)[C@@H](O)[C@H](O)[C@H]1O` [hexyl-glucoside, hexyl-β-D-glucopyranoside] here?
Its value is 122 % of wild-type.

And the “Ca2+ flux signaling value” [5]?
Its value is 122 % of wild-type.

What about the EC50 [1, 14] of the same molecule?
The EC50 was 2100 µM.

With `N#C[C@H](O[C@@H]1O[C@H](CO[C@@H]2O[C@H](CO)[C@@H](O)[C@H](O)[C@H]2O)[C@@H](O)[C@H](O)[C@H]1O)c1ccccc1` [amygdalin] as the molecule, how does the “activation of TAS2R16” value [2] read?
The value was “activation”.

With `O=[N+]([O-])c1ccc(O[C@@H]2O[C@H](CO)[C@@H](O)[C@H](O)[C@H]2O)cc1` [4-NP-β-glucoside, 4-nitrophenyl-β-D-glucopyranoside] as the molecule, how does the “activation of W261G variant” value [6] read?
The value was “higher than wild-type”.

What about the EC50 [1, 15] of the same molecule?
The EC50 was 4900 µM.

And the EC50 [3, 13]?
Its EC50 is 1800 µM.

What about the “activation of W261A variant” value [3] of the same molecule?
The value was “strongly activated; also recorded: higher than wild-type; also recorded: increased the activation”.

And the “decrease in EC50 with W261 mutation compared to WT” value [3]?
Its value is ~ 4 fold.

With `CC(=O)N[C@H]1[C@H](Oc2ccccc2)O[C@H](CO)[C@@H](O)[C@@H]1O` [β-glucosaminide, phenyl-N-acetyl-β-D-glucosaminide] as the molecule, how does the “Ca2+ flux signaling value” [4] read?
Its value is 105 % of wild-type.

What about the “activation, % of wild-type activation” value [7] of the same molecule?
The value was 90 % of wild-type.

What about the “Ca2+ flux signaling value” [5] of the same molecule?
Its value is 132 % of wild-type.

What about the EC50 [1, 14] of the same molecule?
Its EC50 is 2500 µM.

And the “activation of TAS2R16 (agonist screen)” value [1]?
The value was “moderate to robust activation”.

With `CCCN(CCC)S(=O)(=O)c1ccc(C(=O)O)cc1` [probenecid] as the molecule, how does the “action on TAS2R38” value [8] read?
Its value is “allosteric inhibitor”.

What about the “action on TAS2R16” value [9] of the same molecule?
Its value is “allosteric inhibitor”.

And the “action on TAS2R43” value [10]?
Its value is “allosteric inhibitor”.

For `O=[N+]([O-])c1ccc(O[C@@H]2O[C@H](CO)[C@@H](O)[C@H](O)[C@@H]2O)cc1` [4-NP-β-mannoside, 4-nitrophenyl-β-D-mannopyranoside], which “Ca2+ flux signaling value” [4] is on record?
The value was 120 % of wild-type.

What about the EC50 [11] of the same molecule?
Its EC50 is 200 µM.

And the “Ca2+ flux signaling value” [5]?
Its value is 103 % of wild-type.

What about the EC50 [1, 15] of the same molecule?
Its EC50 is 800 µM.

What about the EC50 ([1]; Fig. 6 comparative dose-response, wild-type TAS2R16, read-out: EC50 (WT)) of the same molecule?
Its EC50 is 1200 µM.

And the EC50 ([1]; Fig. 7 dose-response, wild-type TAS2R16, read-out: EC50 (WT))?
Its EC50 is 1100 µM.

What about the EC50 [1, 14] of the same molecule?
The EC50 was 650 µM.

What about the “lower EC50 than 4-NP-β-glucoside” value ([1]; wild-type TAS2R16, Fig. 6A) of the same molecule?
The value was 4 fold.

And the EC50 [3, 13]?
The EC50 was 200 µM.

What about the “activation of W261A variant” value [3] of the same molecule?
Its value is “strongly activated; also recorded: increased the activation”.

What about the “decrease in EC50 with W261 mutation compared to WT” value [3] of the same molecule?
Its value is ~ 4 fold.

What about the EC50 [12] of the same molecule?
The EC50 was 1000 µM.

Which “activation of TAS2R16 (agonist screen)” value [1] does the source give for `OC[C@H]1O[C@@H](Sc2ccccc2)[C@H](O)[C@@H](O)[C@@H]1O` [phenyl-β-D-thioglucopyranoside] here?
Its value is “moderate to robust activation”.

What about the “activation of wild-type TAS2R16” value ([1]; wild-type TAS2R16, HEK-293T) of the same molecule?
Its value is “activation”.
